Square brackets hold non-standard residues; d marks the D form. Ends that are not written are not given here. pGlu = O=C1CC[C@@H](C(=O)O)N1
Experiments:
[1] = tested on: panelists (salt perception); assay: Increased Salt Perception Protocol (descriptive sensory panel); type: in vivo, human; settings: for Mean salt perception in mouth: scale anchored to 0.35% salt reference = 5.0; for Mean salt perception after expectoration: re-tasting of salt reference (0.35% salt, intensity 5.0)
Method: Descriptive Profiles (Flavor and Chemical Feeling Factors) of five use levels of a pGlu-Val-Leu flavor composition were determined. The five use levels were as follows:
Data was collected for the flavor and chemical feeling factors of the product in mouth for each of the five use levels according to the following protocol:
1. Each panelist tasted a salt reference (0.35% salt solution) with a reference salt intensity of 5.0 which provided a baseline for each panelist's Sensory Spectrum for salt intensity.
2. Each panelist tasted a test sample (0.1 ppb, 0.5 ppb, 1.0 ppb, 10.0 ppb or 40.0 ppb all in 0.2% NaCl solution). Only one sample was tasted per session.
3. Each panelist re-tasted the salt reference (5.0 intensity) and rated it for salt intensity as well as any other basic taste, chemical feeling factor, or aromatic perceived. Thus, any increased salt perception as a result of the test sample would be determined, as well as any other perceptions present. Return to Baseline Protocol
The test samples were formulated as follows: […]

[2] = tested on: panelists (salt perception); assay: Return to Baseline Protocol (saltiness aftertaste, sensory panel); type: in vivo, human; settings: salt reference re-tasted at 1 minute intervals until intensity 5.0
Method: After evaluating the sample for salt and other perceptions (step 3 above), each panelist re-tasted the salt reference (5.0 intensity) at 1 minute intervals until their perception of the saltiness intensity of the reference returned to 5.0. Each panelist recorded salt intensity at each interval and took qualitative notes on other perceptions seen in aftertaste.

Which results are given for [pGlu]-Val-Leu?
Mean salt perception in mouth ([1]; 0.1 ppb peptide in 0.2% NaCl solution): 2.3; Mean salt perception after expectoration ([1]; 0.1 ppb sample): 6.8; perception of salt in-mouth as concentration increased ([1]; 0.1 to 40.0 ppb in 0.2% NaCl solution): did not significantly increase; Mean salt perception in mouth ([1]; 0.5 ppb peptide in 0.2% NaCl solution): 2.8; Mean salt perception after expectoration ([1]; 0.5 ppb sample): 6.4; Mean salt perception in mouth ([1]; 1.0 ppb peptide in 0.2% NaCl solution): 2.3; Mean salt perception after expectoration ([1]; 1.0 ppb sample): 7.5; Mean salt perception in mouth ([1]; 10.0 ppb peptide in 0.2% NaCl solution): 3.1; Mean salt perception after expectoration ([1]; 10.0 ppb sample): 8.2; Mean salt perception in mouth ([1]; 40.0 ppb peptide in 0.2% NaCl solution): 2.8; Mean salt perception after expectoration ([1]; 40.0 ppb sample): 8.3; Salt perception after expectoration ([1]; all samples (0.1 to 40.0 ppb), versus reference intensity 5.0): increased; Mean time needed to return to baseline ([2]; 0.1 ppb sample): 7.6 min; Mean time needed to return to baseline ([2]; 0.5 ppb sample): 9.5 min; Mean time needed to return to baseline ([2]; 1.0 ppb sample): 8.7 min; Mean time needed to return to baseline ([2]; 10.0 ppb sample): 8.6 min

Source: patent US10834946B2, “Flavor composition and edible compositions containing same” (Mars, Incorporated, priority 2013, dated 2020)
